According to US8748435B2, “Pyrazolo pyrimidine derivatives” (Novartis AG, priority 2011, dated 2014):
Structures can show the parent of a compound that is named as a salt.

Columns and labels:
rat GPR4 = rat GPR4 (Rattus norvegicus (Rat), UniProt Q4KLH9); assay: Rat GPR4 cAMP assay; assay type: cell-based; settings: read-out: r cAMP IC50
Procedure: (§1) HeLa cells stably expressing human GPR4 were established by transfecting the cells with a construct containing the human GPR4 coding sequence. The cells were grown in Dulbecco's Modified Eagle Medium (DMEM)/HAM's tissue culture medium F12 (HAM's F12) supplemented with 10% fetal calf serum (FCS), 100 u/ml penicillin, 100 μg/ml streptomycin and 400 μg/ml G418 and 10 mM Hepes pH 8.0. pH-induced formation of cAMP was determined using the homogeneous time resolved fluorescence (HTRF) technology as provided by CisBio Inc. The cells were seeded in 384-well plates and cultured for 24 hours at 37° C., 5% CO2 before performing the assay. Medium was removed and 10 μl buffer A (Hepes buffered saline (HBS), 10 mM Hepes, pH 8, 2 mM 3-Isobutyl-1-methylxanthin (IBMX)) was added. For compound testing, buffer A with 2× concentrated compounds was used. Cells were incubated for 15 min at room temperature. 10 μl buffer B (HBS, 30 mM Hepes, specific pH) was added to reach the appropriate final pH for stimulation (see below) and incubation was continued for 15 min at room temperature. […] HBS: 130 mM NaCl, 0.9 mM NaH2 PO4, 5.4 mM KCl, 0.8 mM MgSO4, CaCl2 1.8 mM, 25 mM glucose, 10-30 mM Hepes. Adjustment of HBS buffers:
(§2) Compounds were diluted from fresh stock solutions at 10 mM in DMSO to 2 mM and then used for serial dilutions in DMSO.
(§3) In a similar manner, assays for the mouse (m) and rat (r) GPR4 receptors have been established.

mouse GPR4 = mouse GPR4 (Mus musculus (Mouse), UniProt Q8BUD0); assay: Mouse GPR4 cAMP assay; assay type: cell-based
Procedure: as §1, §2, §3

human GPR4 [1] = target: T1, human GPR4 (Homo sapiens (Human), UniProt P46093); assay: Cell-based assay for human GPR4 activity (pH-induced cAMP formation, HTRF, HeLa cells); settings: HeLa cells stably expressing human GPR4, pH-induced cAMP
Procedure: b) Cell-Based Assay for Human GPR4 Activity
as §1, §2

Human H3 = Human H3 (Homo sapiens (Human), UniProt Q9Y5N1); assay: Human H3 binding assay (SPA, [3H]-R-alpha-Methylhistamine); settings: 3 nM [3H]-R-alpha-Methylhistamine
Procedure: c) Human H3 Binding Assay
The Scintillation Proximity Binding Assay (SPA) assay was performed in a final volume of 50 μL per well in a 384-well polystyrene plate.
The final concentration of the radioligand was 3 nM. • 20 μL of a beads (PVT-WGA type A) and membranes mixed suspension in assay buffer, in order to get a final concentration of 10 μg/well of membranes and 200 μg/well of beads. As an example, 1471 μL membranes (Conc.: 5.1 mg/mL) and 1500 μL of bead suspension (Conc.: 100 mg/mL) are diluted to a final volume of 15 mL of assay buffer.
The plates were sealed and shaken at room temperature, then allowed to stand at room temperature for at least 1 hour. The plates were counted using a Perkin Elmer TopCount reader, each well being counted for 1 minute.

human GPR4 [2] = target: T1, human GPR4; assay: Human GPR4 binding assay with additional human serum albumin (4% HSA); settings: binding assay with 4% HSA
Procedure: (§4) Cells were grown in T175 flasks to a density of about 1×10^6 cells/mL in growth medium. The cells were harvested by centrifugation (3000 rpm for 30 minutes at 4° C.) and the pellet resuspended in ice cold buffer A (20 mM HEPES pH 7.8, 10 mM EDTA, 100 mM NaCl, 1 tab/40 mL protease inhibitor complete). […] The homogenate was centrifuged at 18000 rpm for 50 min at 4° C. and the membrane protein pellet resuspended in cold buffer A using the Polytron (2×20 seconds). The protein concentration is determined using the Bio Rad Protein Assay and human IgG as standard. The volume of the membrane protein suspension is adjusted to a final concentration of about 2 mg protein/mL. The suspension is then once again homogenized (Polytron) on ice at 25000 rpm for 20 seconds before being aliquoted and stored at −80° C.
(§5) Radio Ligand Binding Assay: Serial dilutions of compounds (stock in 10 mM DMSO) are prepared by first diluting the compounds in DMSO followed by a 1:50 dilution into assay buffer (10 mM HEPES, pH 8.0, 100 mM NaCl, 5 mM MgCl2, 1 mM CaCl2, 0.5% fatty acid-free BSA, 0.05% Tween-20). […] The desired amount of membranes (20 μg/well) is diluted with assay buffer. […] 100 μL of the membrane-suspension is added and the plate stirred for 60 minutes. […] The filter plate is washed 5 times with ice-cold wash buffer, dried and sealed at the bottom. Then 20 μL of Microscint 40 is added into each well and the top of the plate is sealed. Finally the plate is counted for 2 min/well in a TopCount NXT instrument (Packard Instruments). The data are analyzed using the GraphPad Prism™ software.
In a similar manner, a binding assay with additional human serum albumin (4% HSA) has been established.

[3] = system: antigen-induced arthritis (knee swelling); assay: Rat antigen-induced arthritis model; assay type: in vivo; settings: oral gavage, AUC of R/L knee swelling ratio vs control
Procedure: e) GPR4 Activity in Rat Antigen-induced Arthritis Model Female Lewis rats were sensitised intradermally on the back at two sites to methylated bovine serum albumin (mBSA) homogenised 1:1 with complete Freund's adjuvant on days −21 and −14 (0.1 ml containing 1 mg/ml mBSA). On day 0, the right knee received […] of 10 mg/ml mBSA in 5% glucose solution (antigen injected knee), while the left knee received […] of 5% glucose solution alone (vehicle injected knee). The diameters of the left and right knees were then measured using calipers immediately after the intra-articular injections and again on days 2, 4 and 7. The compounds of the invention were administered twice daily by oral gavage; vehicle (saline) at 5 ml/kg, and dexamethasone at 0.3 mg/kg was given as a control. Right knee swelling was calculated as a ratio of left knee swelling, and the R/L knee swelling ratio plotted against time to give Area Under the Curve (AUC) graphs for control and treatment groups. The percentage inhibition of the individual treatment group AUCs were calculated vs the control group AUC (0% inhibition).

human GPR4 [4] = target: T1, human GPR4; assay: Human GPR4 binding assay ([3H]4 radioligand, membranes of 300.19 cells expressing human GPR4)
Procedure: a) Human GPR4 Binding Assay
as §4, §5

CFA-induced hyperalgesia = assay: Established rat hyperalgesia model (CFA); assay type: in vivo; settings: gavage
Procedure: f) Established Rat Hyperalgesia Model
Naïve withdrawal thresholds of both hind paws were determined by using an increasing pressure stimulus placed onto the dorsal surface of each paw using an analgesymeter. Delayed inflammatory pain was then induced by intra-plantar injection of 25 μl of complete Freund's adjuvant (CFA) into one hindpaw with the contralateral paw acting as the control. […] One hour later, paw withdrawal thresholds were re-measured on both the ipsilateral (CFA-injected) and contralateral (uninjected) paw; measurements were repeated at 3 hrs and 6 hrs post dosing. The reversal of hyperalgesia was calculated using the following formula: Reversal (%)=100×(postdose ipsilateral threshold−predose ipsilateral threshold) (naïve ipsilateral threshold−predose ipsilateral threshold).

[5] = radioligand [3H]4 (example 39), membranes of 300.19 cells expressing human GPR4

Sequence of rat GPR4 (Q4KLH9 whole entry): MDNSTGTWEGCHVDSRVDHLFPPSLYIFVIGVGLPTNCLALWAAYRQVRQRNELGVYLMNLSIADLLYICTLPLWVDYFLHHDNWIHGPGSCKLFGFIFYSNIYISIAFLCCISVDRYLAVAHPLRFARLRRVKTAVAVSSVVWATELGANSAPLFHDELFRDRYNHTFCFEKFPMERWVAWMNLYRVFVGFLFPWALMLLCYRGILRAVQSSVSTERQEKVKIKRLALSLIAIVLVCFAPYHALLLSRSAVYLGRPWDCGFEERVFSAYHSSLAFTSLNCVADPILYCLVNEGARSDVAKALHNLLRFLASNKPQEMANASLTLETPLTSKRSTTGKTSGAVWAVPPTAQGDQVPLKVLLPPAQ
T1 sequence (P46093 whole entry): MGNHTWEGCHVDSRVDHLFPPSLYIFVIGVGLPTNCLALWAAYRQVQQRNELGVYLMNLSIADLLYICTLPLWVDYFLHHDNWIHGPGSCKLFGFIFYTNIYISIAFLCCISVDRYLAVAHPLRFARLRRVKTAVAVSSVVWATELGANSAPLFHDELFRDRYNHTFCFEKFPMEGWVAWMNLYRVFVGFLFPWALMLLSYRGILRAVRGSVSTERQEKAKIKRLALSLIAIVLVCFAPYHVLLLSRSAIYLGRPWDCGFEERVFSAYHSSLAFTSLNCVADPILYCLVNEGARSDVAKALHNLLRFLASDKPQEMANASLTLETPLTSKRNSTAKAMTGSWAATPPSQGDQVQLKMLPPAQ
Sequence of mouse GPR4 (Q8BUD0 whole entry): as the sequence (Q4KLH9 whole entry) above, with W8G, R51H, T339S counted along it
Sequence of Human H3 (Q9Y5N1 whole entry): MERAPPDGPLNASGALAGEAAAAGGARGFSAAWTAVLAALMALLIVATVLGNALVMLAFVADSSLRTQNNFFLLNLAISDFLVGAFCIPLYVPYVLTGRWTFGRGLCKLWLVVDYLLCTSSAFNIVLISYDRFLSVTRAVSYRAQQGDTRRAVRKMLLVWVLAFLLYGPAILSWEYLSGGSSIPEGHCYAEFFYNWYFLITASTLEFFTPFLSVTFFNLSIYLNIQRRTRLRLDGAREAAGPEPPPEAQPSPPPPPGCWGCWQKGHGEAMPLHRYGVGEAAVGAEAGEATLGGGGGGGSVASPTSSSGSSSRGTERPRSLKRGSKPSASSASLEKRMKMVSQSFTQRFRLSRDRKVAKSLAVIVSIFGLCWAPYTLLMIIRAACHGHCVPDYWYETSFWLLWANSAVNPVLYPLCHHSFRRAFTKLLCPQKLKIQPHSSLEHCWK

| IC50 (rat GPR4) [nM] | IC50 (mouse GPR4) [nM] | IC50 (human GPR4 [1]) [nM] | IC50 (Human H3) [nM] | IC50 (human GPR4 [2]) [nM] | IC50 (human GPR4 [4]; [5]) [nM] | Structure (SMILES) | Inhibition of swelling ([3]; 90 mg/kg bid) [%] | % reversal of hyperalgesia (CFA-induced hyperalgesia; 3 mg/kg, 1 h) [%] | % reversal of hyperalgesia (CFA-induced hyperalgesia; 3 mg/kg, 3 h) [%] | % reversal of hyperalgesia (CFA-induced hyperalgesia; 3 mg/kg, 6 h) [%] | % reversal of hyperalgesia (CFA-induced hyperalgesia; 10 mg/kg, 1 h) [%] | % reversal of hyperalgesia (CFA-induced hyperalgesia; 10 mg/kg, 3 h) [%] | % reversal of hyperalgesia (CFA-induced hyperalgesia; 10 mg/kg, 6 h) [%] | % reversal of hyperalgesia (CFA-induced hyperalgesia; 30 mg/kg, 1 h) [%] | % reversal of hyperalgesia (CFA-induced hyperalgesia; 30 mg/kg, 3 h) [%] | % reversal of hyperalgesia (CFA-induced hyperalgesia; 30 mg/kg, 6 h) [%] | Inhibition of swelling ([3]; 30 mg/kg bid) [%] | IC50 (human GPR4 [4]) [nM] |
| --- | --- | --- | --- | --- | --- | --- | --- | --- | --- | --- | --- | --- | --- | --- | --- | --- | --- | --- |
|  |  |  |  |  |  | CCc1nn2c(C)cc(C)nc2c1Cc1ccc(/C=C/CN2CCN(C[C@@H](O)CO)CC2)cc1.Cl.Cl [Example 17, (R)-3-(4-{(E)-3-[4-(2-Ethyl-5,7-dimethyl-pyrazolo[1,5-a]pyrimidin-3-ylmethyl)-phenyl]-allyl}-piperazin-1-yl)-propane-1,2-diol dihydrochloride] |  | 28 | 18 | 3 | 36 | 29 | 7 | 55 | 32 | 15 | 36 |  |
| 1410 | 262 | 21 | > 30000 | 19 |  | CCc1nn2c(C)cc(C)nc2c1Cc1ccc(OC[C@H]2CC[C@@H](N)CC2)cc1 [Example 23, 4-[4-(2-Ethyl-5,7-dimethyl-pyrazolo[1,5-a]pyrimidin-3-ylmethyl)-phenoxymethyl]-cyclohexylamine] |  |  |  |  |  |  |  |  |  |  | 24 |  |
| 2090 | 635 | 52 | > 30000 | 63 | 110 | CCc1nn2c(C)cc(C)nc2c1Cc1ccc(OCCC2(O)CCNCC2)cc1 [Example 25, 4-{2-[4-(2-Ethyl-5,7-dimethyl-pyrazolo[1,5-a]pyrimidin-3-ylmethyl)-phenoxy]-ethyl}-piperidin-4-ol] |  |  |  |  |  |  |  |  |  |  |  |  |
| 2640 | 633 | 96 | > 30000 | 69 |  | CCc1nn2c(C)cc(C)nc2c1Cc1ccc(OCCN2CCNCC2)cc1 [Example 26, 2-Ethyl-5,7-dimethyl-3-[4-(2-piperazin-1-yl-ethoxy)-benzyl]-pyrazolo[1,5-a]pyrimidine] |  |  |  |  |  |  |  |  |  |  |  | 44 |
| 2630 | 507 | 64 | > 30000 | 81 | 59 | CCc1nn2c(C)cc(C)nc2c1Cc1ccc(OCCN2CCN[C@@H](COC)C2)cc1 [Example 27, 2-Ethyl-3-{4-[2-((R)-3-methoxymethyl-piperazin-1-yl)-ethoxy]-benzyl}-5,7-dimethyl-pyrazolo[1,5-a]pyrimidine] |  |  |  |  |  |  |  |  |  |  |  |  |
| 2300 | 687 | 49 | 20000 | 180 | 118 | CCc1nn2c(C)cc(C)nc2c1Cc1ccc(-n2cc(CN3CC(O)C3)cn2)cc1 [Example 28, 1-{1-[4-(2-Ethyl-5,7-dimethyl-pyrazolo[1,5-a]pyrimidin-3-ylmethyl)-phenyl]-1H-pyrazol-4-ylmethyl}-azetidin-3-ol] | 25 |  |  |  |  |  |  |  |  |  |  |  |
| 430 | 211 | 36 | > 30000 | 30 | 21 | CCc1nn2c(C)cc(C)nc2c1Cc1ccc(-n2cc(CN3CC(N)C3)cn2)cc1 [Example 29, 1-{1-[4-(2-Ethyl-5,7-dimethyl-pyrazolo[1,5-a]pyrimidin-3-ylmethyl)-phenyl]-1H-pyrazol-4-ylmethyl}-azetidin-3-ylamine] |  |  |  |  |  |  |  |  |  |  |  |  |
| 2290 | 284 | 51 | > 30000 | 17 | 5 | CCc1nn2c(C)cc(C)nc2c1Cc1ccc(-c2nnc([C@H]3CC[C@H](N)CC3)o2)cc1 [Example 36, 4-{5-[4-(2-Ethyl-5,7-dimethyl-pyrazolo[1,5-a]pyrimidin-3-ylmethyl)-phenyl]-[1,3,4]oxadiazol-2-yl}-cyclohexylamine] |  |  |  |  |  |  |  |  |  |  |  |  |
| 811 | 180 | 45 | > 30000 | 29 | 15 | CCc1nn2c(C)cc(C)nc2c1Cc1ccc(-c2nnc(C3CCN(C(=O)[C@H](CO)NC)CC3)o2)cc1 [Example 38, (S)-1-(4-{5-[4-(2-Ethyl-5,7-dimethyl-pyrazolo[1,5-a]pyrimidin-3-ylmethyl)-phenyl]-[1,3,4]oxadiazol-2-yl}-piperidin-1-yl)-3-hydroxy-2-methylamino-propan-1-one hydrochloride] |  |  |  |  |  |  |  |  |  |  |  |  |

| Structure (SMILES) | IC50 (rat GPR4) [nM] | IC50 (mouse GPR4) [nM] | IC50 (human GPR4 [1]) [nM] | IC50 (Human H3) [nM] | IC50 (human GPR4 [2]) [nM] | IC50 (human GPR4 [4]; [5]) [nM] | Inhibition of swelling ([3]; 90 mg/kg bid) [%] | % reversal of hyperalgesia (CFA-induced hyperalgesia; 3 mg/kg, 1 h) [%] | % reversal of hyperalgesia (CFA-induced hyperalgesia; 3 mg/kg, 3 h) [%] | % reversal of hyperalgesia (CFA-induced hyperalgesia; 3 mg/kg, 6 h) [%] | % reversal of hyperalgesia (CFA-induced hyperalgesia; 10 mg/kg, 1 h) [%] | % reversal of hyperalgesia (CFA-induced hyperalgesia; 10 mg/kg, 3 h) [%] | % reversal of hyperalgesia (CFA-induced hyperalgesia; 10 mg/kg, 6 h) [%] | % reversal of hyperalgesia (CFA-induced hyperalgesia; 30 mg/kg, 1 h) [%] | % reversal of hyperalgesia (CFA-induced hyperalgesia; 30 mg/kg, 3 h) [%] | % reversal of hyperalgesia (CFA-induced hyperalgesia; 30 mg/kg, 6 h) [%] | Inhibition of swelling ([3]; 30 mg/kg bid) [%] | IC50 (human GPR4 [4]) [nM] |
| --- | --- | --- | --- | --- | --- | --- | --- | --- | --- | --- | --- | --- | --- | --- | --- | --- | --- | --- |
| CCc1nn2c(C)cc(C)nc2c1Cc1ccc(/C=C/CN2CCN[C@H](CO)C2)cc1 [Example 8, ((S)-4-{(E)-3-[4-(2-Ethyl-5,7-dimethyl-pyrazolo[1,5-a]pyrimidin-3-ylmethyl)-phenyl]-allyl}-piperazin-2-yl)-methanol dihydrochloride] | 670 | 378 | 34 | > 30000 | 51 | 28 | 30 |  |  |  |  |  |  |  |  |  |  |  |
| CCc1nn2c(C)cc(C)nc2c1Cc1ccc(-n2cc(CC3(O)CCNCC3)nn2)cc1 [Example 34, 4-{1-[4-(2-Ethyl-5,7-dimethyl-pyrazolo[1,5-a]pyrimidin-3-ylmethyl)-phenyl]-1H-[1,2,3]triazol-4-ylmethyl}-piperidin-4-ol] | 1230 | 534 | 58 | > 30000 | 78 |  |  |  |  |  |  |  |  |  |  |  |  | 77 |
